Test system: MMP-1
Assay: Test 2: Analysis of inhibition of MMP-1 expression (MMP-1 ELISA, UVB-irradiated HS68 cells)
Assay type: cell-based, human
Conditions: UVB 30 mJ/cm2, compositions 1% mass concentration (RA 5 μM), 48 h, unirradiated control = 100, UV control = 194
Experimental: Test 2: Analysis of Inhibition of MMP-1 Expression
Human fibrocytes (HS68 cells, purchased from ATCC (Rockville, Md., USA)) were placed in a well plate at a density of 7.5×10^4 cells/well, and incubated in DMEM containing 10% FBS for 24 h, and then washed with PBS (phosphate buffer), followed by the addition of 0.5 ml of PBS therein, the resultant incubated cells were irradiated with ultraviolet rays (UVB30 mJ/cm2) to induce the expression of MMP-1. After the replacement with serum-free DMEM, the resultant product was treated with the compositions (having a mass concentration of 1%) of the examples and the contrast examples. The amount of supernatant obtained after 48 h incubation was determined using an MMP-1 ELISA kit. The human dermal fibroblasts HS68 were treated with ultraviolet rays to increase the expression of MMP-1, and then the resultant HS68 cells were treated with each sample to study whether the expression of MMP-1 was decreased. In the above, retinoic acid (RA, 5 μM, which is known to inhibit the expression of MMP-1) was used as a positive control group.

CC1=C(/C=C/C(C)=C/C=C/C(C)=C/C(=O)O)C(C)(C)CCC1 [RA, retinoic acid]
Effect on inhibition of MMP-1 expression: proportions relative to the control group (%): 118%
